# Measured values: US11820776B2, “Process for the preparation of Remimazolam and solid state forms of Remimazolam salts” (WATSON LABORATORIES INC., priority 2017, dated 2023)
# Tests used:
# Type in all cases: physicochemical
# [1] = Solid state stability at 80% relative humidity in open Petri dish; settings: 80% relative humidity (RH), room temperature (RT)
# [2] = Kinetic water solubility; settings: comparator not stated
# [3] = Solubility in various pH ranges; settings: comparator not stated
# [4] = Compressibility properties; settings: compared to Remimazolam besylate; may indicate better flow properties
# [5] = Bulk density; settings: compared to Remimazolam besylate
SMILES,period for which the crystalline form is stable [1],kinetic water solubility [2],solubility in various pH ranges [3],compressibility properties [4],bulk density [5]
Br.COC(=O)CC[C@@H]1N=C(c2ccccn2)c2cc(Br)ccc2-n2c(C)cnc21 [Form 1 of Remimazolam Mono hydrobromide],at least 24 hours,improved,improved,,
COC(=O)CC[C@@H]1N=C(c2ccccn2)c2cc(Br)ccc2-n2c(C)cnc21.CS(=O)(=O)O [Form 2 of Remimazolam Methane Sulfonate],at least 24 hours,improved,improved,,
CC1(C)C2CCC1(CS(=O)(=O)O)C(=O)C2.COC(=O)CC[C@@H]1N=C(c2ccccn2)c2cc(Br)ccc2-n2c(C)cnc21 [Form 2 of Remimazolam Camphor Sulfonate],at least 24 hours,,,improved,higher
